US6281214A, “Biphenyl derivatives” (Eisai Co., Ltd, priority 1994, dated 2001)
Read-outs that look alike come from different tables or passages of the source.

Key:
Design in all cases: species or system SD rats
serotonin S2 receptor = biological target: T1, serotonin S2 receptor (Rattus norvegicus, UniProt P14842); assay: serotonin S2 receptor binding test ([3H] Ketanserin Binding Test); details: 1 nM [3H] Ketanserin, rat cortex, 37° C., 15 minutes
T1 construct: The receptor fraction prepared from the cortex was molten and suspended; from tissue; host or cells: cerebral cortex of SD rats (membrane fraction)
Protocol: (§1) The compounds of the present invention were subjected to each of serotonin S2 receptor binding test, dopamine D2 receptor binding test and adrenergic α1 receptor binding test.
(§2) The following reagents were used in this test.
(§3) These reagents and samples were each dissolved in 10% ethanol before use. Among them, water-insoluble compounds were each dissolved in ethanol and the obtained solution was diluted with distilled water to an ethanol concentration of 10%. Further, Methylsergide maleate was used in a state dissolved in distilled water.
(§4) SD rats aged 6 to 8 weeks were used.
(§5) SD rats were each slaughtered with a guillotine to extirpate its cerebrum. The cortex and corpus striatum were separated from the cerebrum. The former was used in serotonin S2 receptor binding test and adrenergic α1, receptor binding test, while the latter was used in dopamine D2 receptor binding test.
(§6) The cortex was homogenized in a 0.32 M sucrose solution in an amount ten times the wet weight of the cortex by the use of a teflon glass homogenizer and the resulting mixture was centrifuged at 10,000×G for 20 minutes. The obtained sediment was suspended in 50 mM Tris hydrochloride (pH 7.4) in an amount ten times the initial wet weight of the cortex by the use of a histocothrom, and the obtained suspension was centrifuged at 10,000×G for 20 minutes. This operation was repeated twice. The obtained sediment was suspended in 50 mM Tris hydrochloride (pH 7.4) in an amount 20 times the initial wet weight of the cortex by the use of a histocothrom. The suspension thus prepared was used as a receptor fraction. This receptor fraction was stored at -80° C. until use.
4. [^3 ] Ketanserin Binding Test
The receptor fraction prepared from the cortex was molten and suspended by the use of a histocothrom. The resulting suspension was incubated together with 1 nM-[^3 H] Ketanserin at 37° C. for 15 minutes. The resulting reaction system was filtered through a Whatman GF/B glass filter with an MR-30R type cell harvester mfd. by Blandel. The resulting filter was washed twice with 5 ml of 50 mM Tris hydrochloride (ph 7.4) cooled with ice and the radioactivity of the Ketanserin bound the receptor was determined by the use of a liquid scintillation counter with 5 ml of ACS II. The binding detected in the presence of […] of Methylsergide was regarded as nonspecific binding.
(§7) Each IC50 value was calculated by the probit method and each Ki value was determined by the following formula: [formula]
(§8) In the above formula, C represents the concentration of radioligand, and Kd represents the affinity of radioligand for the receptor as determined by the Scatchard analysis.

dopamine D2 receptor = biological target: T2, dopamine D2 receptor (Rattus norvegicus, UniProt P61169); assay: dopamine D2 receptor binding test ([3H] Spiperone Binding Test); details: 1 nM [3H] Spiperone, rat corpus striatum, room temperature, 60 minutes
T2 construct: the receptor fraction prepared from the corpus striatum was molten and suspended; from tissue; host or cells: corpus striatum of SD rats (membrane fraction)
Protocol: as §1, §2, §3, §4, §5
On the other hand, the corpus striatum was homogenized in a 0.32 M sucrose solution in an amount ten times the wet weight of the corpus striatum by the use of a teflon glass homogenizer and the obtained mixture was centrifuged at 1,000×G for 20 minutes. The obtained supernatant was centrifuged at 10,000×G for 20 minutes. The obtained sediments were suspended together in 50 mM Tris hydrochloride (pH 7.4) in an amount ten times the initial wet weight of the corpus striatum by the use of a histocothrom, and the obtained suspension was centrifuged at 10,000×G for 20 minutes. This operation was repeated thrice. The resulting sediment was suspended in 50 mM Krebs-Tris (pH 7.4) in an amount 100 times the initial wet weight of the corpus striatum by the use of a histocothrom. The obtained suspension was used as a receptor fraction. This receptor fraction was stored at -80° C. until use.
as §7, §8
5. [^3 H] Spiperone Binding Test
(§9) This test was conducted in the same manner as that of the binding test of [^3 H] Ketanserin except that the receptor fraction prepared from the corpus striatum was molten and suspended with a histocothrom, and the obtained suspension was incubated together with 1 nM-[^3 H], Spiperone at room temperature for 60 minutes and that the binding detected in the presence of 10 μl of Spiperone was regarded as nonspecific binding.

adrenergic α1 receptor = adrenergic α1 receptor binding test ([3H] Prazosin Binding Test); details: 1 nM [3H] Prazosin, rat cortex, room temperature, 60 minutes
Protocol: as §1, §2, §3, §4, §5, §6, §7, §8
6. [^3 H] Prazosin Binding Test
as §9, with “cortex” for “corpus striatum”, “H] Prazosin” for “H], Spiperone”, “Phentolamine” for “Spiperone”

[1] = read-out: Ki value, dopamine D2 receptor

T2 sequence (P61169 whole entry): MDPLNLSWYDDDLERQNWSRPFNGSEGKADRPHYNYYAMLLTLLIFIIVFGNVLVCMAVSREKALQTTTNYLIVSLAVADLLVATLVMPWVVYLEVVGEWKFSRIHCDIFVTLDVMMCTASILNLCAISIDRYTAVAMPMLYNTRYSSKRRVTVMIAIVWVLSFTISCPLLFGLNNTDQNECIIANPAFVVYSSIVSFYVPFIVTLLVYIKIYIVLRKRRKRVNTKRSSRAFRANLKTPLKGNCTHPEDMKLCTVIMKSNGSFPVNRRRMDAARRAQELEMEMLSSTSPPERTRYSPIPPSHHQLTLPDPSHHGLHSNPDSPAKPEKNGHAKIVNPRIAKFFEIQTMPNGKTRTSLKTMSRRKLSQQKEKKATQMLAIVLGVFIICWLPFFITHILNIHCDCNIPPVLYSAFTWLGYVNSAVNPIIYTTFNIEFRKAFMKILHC
T1 sequence (P14842 whole entry): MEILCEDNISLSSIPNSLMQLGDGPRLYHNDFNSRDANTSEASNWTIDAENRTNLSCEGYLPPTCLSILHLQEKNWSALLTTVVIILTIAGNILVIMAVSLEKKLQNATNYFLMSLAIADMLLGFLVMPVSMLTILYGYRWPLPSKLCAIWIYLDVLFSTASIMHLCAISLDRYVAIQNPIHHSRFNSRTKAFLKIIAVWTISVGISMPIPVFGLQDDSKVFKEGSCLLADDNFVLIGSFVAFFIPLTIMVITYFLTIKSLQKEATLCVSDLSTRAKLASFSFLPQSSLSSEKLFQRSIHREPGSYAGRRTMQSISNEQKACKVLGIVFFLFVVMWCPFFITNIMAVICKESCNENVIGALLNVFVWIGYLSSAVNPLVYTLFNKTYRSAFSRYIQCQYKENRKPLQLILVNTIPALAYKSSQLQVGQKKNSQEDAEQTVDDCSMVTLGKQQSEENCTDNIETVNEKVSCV

Row | SMILES | Ki (serotonin S2 receptor) | Ki (dopamine D2 receptor; [1]) | Ki (adrenergic α1 receptor) | Ki (dopamine D2 receptor; Ki value, dopamine D2 receptor)
1 | CCCS(=O)(=O)Nc1cc(N2CCN(CC)CC2)cc(-c2ccc(OC)cc2)c1Cl [Example 187, 1-Ethyl-4-[3-(4-methoxyphenyl)-4-chloro-5-propanesulfonyamino]phenylpiperazine] | 38.2 nM | 0.54 nM | 7.8 nM | –
2 | CCN1CCN(c2cc(-c3ccccc3)c(OC)c(C(C)CO)c2)CC1 (stereo not drawn) [Example 87] | 283 nM | 135 nM | > 1000 nM | –
3 | CCN1CCN(c2cc(COCc3ccncc3)c(Cl)c(-c3ccccc3C)c2)CC1 [Example 169, 1-Ethyl-4-[3-(2-tolyl)-4-chloro-5-(4-pyridyl)methoxymethyl]phenylpiperazine] | 108 nM | 41.8 nM | > 1000 nM | –
4 | CCN1CCN(c2cc(-c3ccccc3C)c(Cl)c(C(F)(F)CC)c2)CC1 [Example 55, 1-Ethyl-4-[3-(2-tolyl)-4-chloro-5-(1,1-difluoropropyl)]phenylpiperazine] | 113 nM | 3.1 nM | > 1000 nM | –
5 | CCN1CCN(c2cc(-c3ccccc3C)c(Cl)c(S(=O)(=O)Nc3ccccc3)c2)CC1 [Example 166, 1-Ethyl-4-[3-(2-tolyl)-4-chloro-5-phenylaminosulfony]phenylpiperazine] | 5.42 nM | 1.42 nM | > 1000 nM | –
6 | CCC(F)c1cc(N2CCN(CCc3ccccn3)CC2)cc(-c2ccccc2C#N)c1Cl (stereo not drawn) [Example 214, 1-[2-(2-Pyridyl)ethyl]-4-[3-(2-cyanophenyl)-4-chloro-5-(1-fluoropropyl)]phenylpiperazine] | 3.78 nM | 5.15 nM | 51.7 nM | –
7 | CCN1CCN(c2cc(-c3ccccc3)c(OC)c(C(F)Cc3ccccn3)c2)CC1 (stereo not drawn) [Example 99, 1-Ethyl-4-{3-phenyl-4-methoxy-5-[1-fluoro-2-(2-pyridyl)ethyl]}phenylpiperazine] | 170 nM | 2.93 nM | > 1000 nM | –
8 | CN1CCN(c2cc(NS(=O)(=O)Cc3ccccc3)c(Cl)c(-c3ccccc3Cl)c2)CC1 [Example 179, 1-Methyl-4-[3-(2-chlorophenyl)-4-chloro-5-benzylsulfonylamino]phenylpiperazine] | 6.54 nM | 6.08 nM | 72.7 nM | –
9 | CCN1CCN(c2cc(CCCC#N)c(OC)c(-c3ccccc3)c2)CC1 [Example 71, 1-Ethyl-4-[3-phenyl-4-methoxy-5-(3-cyanopropyl)]phenylpiperazine] | 90.9 nM | 14.7 nM | 131 nM | –
10 | CCN1CCN(c2cc(-c3ccccc3)c(OC)c(C(F)Cc3ccccc3)c2)CC1 (stereo not drawn) [Example 96, 1-Ethyl-4-[3-phenyl-4-methoxy-5-(1-fluorophenethyl)]phenylpiperazine] | 35.3 nM | 1.33 nM | > 1000 nM | –
11 | CCN1CCN(c2cc(-c3ccccc3)c(OC)c(C(C)(C)F)c2)CC1 [Example 86, 1-Ethyl-4-[3-phenyl-4-methoxy-5-(1-fluoroisopropyl)]phenylpiperazine] | 29.4 nM | 10.5 nM | > 1000 nM | –
12 | CCN1CCN(c2cc(-c3ccccc3C)c(Cl)c(S(=O)(=O)N3CCCC3)c2)CC1 [Example 141] | 92.7 nM | 24.9 nM | > 1000 nM | –
13 | CCN1CCN(c2cc(CCCO)cc(-c3ccccc3)c2OC)CC1 [Example 63, 1-Ethyl-4-[2-methoxy-3-phenyl-5-(3-hydroxypropyl)]phenylpiperazine] | 703 nM | > 1000 nM | > 1000 nM | –
14 | CCC(F)c1cc(N2CCN(CC)CC2)cc(-c2ccccc2Cl)c1Cl (stereo not drawn) [Example 24, 1-Ethyl-4-[3-(2-chlorophonyl)-4-chloro-5-(1-fluoropropyl)]phenylpiperazine] | 40.9 nM | 3.6 nM | 537 nM | –
15 | CCC(F)c1cc(N2CCN(C)CC2)cc(-c2ccccc2)c1Cl (stereo not drawn) [Example 206] | 4.29 nM | – | 47.8 nM | 1.06 nM
16 | CCN1CCN(c2cc(CCO)cc(-c3ccccc3)c2OC)CC1 [Example 67, 1-Ethyl-4-[2-methoxy-3-phenyl-5-(2-hydroxyethyl)]phenylpiperazine] | > 1000 nM | > 1000 nM | 687 nM | –
17 | CCCc1cc(N2CCN(CC)CC2)cc(-c2ccccc2)c1OC [Example 59, 1-Ethyl-4-(3-phenyl-4-methoxy-5-propyl)phenylpiperazine] | 36.7 nM | 47 nM | 301 nM | –
18 | CC[C@@H](F)c1cc(N2CCN(C)CC2)cc(-c2ccccc2C)c1Cl [Example 220, 1-Methyl-4-{3-(2-tolyl)-4-chloro-5-[1-(R)-fluoropropyl]}phenylpiperazine] | 37.9 nM | 1.25 nM | 1680 nM | –
19 | CCN1CCN(c2cc(CCC(C)=O)c(OC)c(-c3ccccc3)c2)CC1 [Example 114, 1-Ethyl-4-[3-phenyl-4-methoxy-5-(2-acetylethyl)]phenylpiperazine] | 151 nM | 165 nM | 569 nM | –
20 | CCCc1cc(N2CCN(CC)CC2)cc(-c2ccccc2F)c1OC [Example 84, 1-Ethyl-4-[3-(2-fluorophenyl)-4-methoxy-5-propyl]phenylpiperazine] | 66.2 nM | 44.6 nM | > 1000 nM | –
21 | CCCCS(=O)(=O)Nc1cc(N2CCN(CC)CC2)cc(-c2ccccc2Cl)c1Cl [Example 33, 1-Ethyl-4-[3-(2-chlorophenyl)-4-chloro-5-butanesulfonylamino]phenylpiperazine] | 6.46 nM | 2.02 nM | 86.9 nM | –
22 | COc1c(C(=O)Cc2ccccc2)cc(N2CCN(CCO)CC2)cc1-c1ccccc1 [Example 128, 1-(2-Hydroxyethyl)-4-(3-phenyl-4-methoxy-5-phenylacetyl)phenylpiperazine] | 1.16 nM | 46.1 nM | > 1000 nM | –
23 | CCC(F)c1cc(N2CCN(CC)CC2)cc(-c2ccc(F)cc2F)c1Cl (stereo not drawn) [Example 144, 1-Ethyl-4-[3-(2,4-difluorophenyl)-4-chloro-5-(1-fluoropropyl)]phenylpiperazine] | 15.7 nM | 0.81 nM | 67.4 nM | –
24 | CCN1CCN(c2cc(-c3ccc(F)cc3)c(OC)cc2C(C)C)CC1 [Example 79] | 192 nM | 28.5 nM | 69.8 nM | –
25 | CCCS(=O)(=O)Nc1cc(N2CCN(CC)CC2)cc(-c2ccccc2CC)c1Cl [Example 194, 1-Ethyl-4-[3-(2-ethylphenyl)-4-chloro-5-propanesulfonylamino]phenylpiperazine] | 4.45 nM | 0.83 nM | > 1000 nM | –
26 | CCN1CCN(c2cc(-c3ccccc3)c(OC)c([S+](C)[O-])c2)CC1 (stereo not drawn) [Example 104, 1-Ethyl-4-(3-phenyl-4-methoxy-5-methanesulfinyl)phenylpiperazine] | 24.5 nM | 70.1 nM | > 1000 nM | –
27 | CCN1CCN(c2cc(COCc3ccccc3)c(Cl)c(-c3ccccc3C)c2)CC1 [Example 167, 1-Ethyl-4-[3-(2-tolyl)-4-chloro-5-benzyloxymethyl]phenylpiperazine] | 23.8 nM | 45.4 nM | > 1000 nM | –
